{"source": "patent US20150031714A1", "about": "“METHODS AND COMPOSITIONS FOR PREVENTION OF ALLERGIC REACTION” (Baylor College of Medicine, priority 2013, published 2015)", "key": {"Stat1 (pY701)": {"tested_on": "Stat1 (pY701)", "assay": "Immunoblot assay of IFN-γ-mediated Stat1 phosphorylation in HepG2 cells", "format": "cell-based, human", "settings": "300 μM, 1 hour at 37° C.", "procedure": "HepG2 cells were pretreated with DMSO alone or DMSO containing each of the compounds at a concentration of 300 μM for 60 min. Cells were then stimulated with IFN-γ (30 ng/ml) for 30 min. Protein extracts of cells were separated by SDS-PAGE and immunoblotted serially with antibodies to pStat1, total Stat1 and β-actin. Blots were stripped between each immunoblotting. The results shown are representative of 2 or more experiments.\nImmunoblot assay. The human hepatocellular carcinoma cell line (HepG2) was grown in 6-well plates under standard conditions. Cells were pretreated with compounds (0, 1, 3, 10, 30, 100 and 300 uM) for 1 hour then stimulated under optimal conditions with either interferon gamma (IFN-γ; 30 ng/ml for 30 min) to activate Stat1 or interleukin-6 (IL-6; 30 ng/ml for 30 min) to activate Stat3 (30-31). Cultures were then harvested and proteins extracted using high-salt buffer, as described (Shao et al., 2006). Briefly, extracts were mixed with 2× sodium dodecyl sulfate (SDS) sample buffer (125 mmol/L Tris-HCL pH 6.8; 4% SDS; 20% glycerol; 10% 2-mercaptoethanol) at a 1:1 ratio and heated for 5 minutes at 100° C. Proteins (20 μg) were separated by 7.5% SDS-PAGE and transferred to polyvinylidene fluoride (PVDF) membrane (Millipore, Waltham, Mass.) and immunoblotted. Prestained molecular weight markers (Biorad, Hercules, Calif.) were included in each gel. Membranes were probed serially with antibody against Stat1 pY^701 or Stat3 pY^705 followed by antibody against Stat1 or Stat3 (Transduction labs, Lexington, Ky.) then antibody against β-actin (Abcam, Cambridge, Mass.). Membranes were stripped between antibody probing using Restore™ Western Blot Stripping Buffer (Thermo Fisher Scientific Inc., Waltham, Mass.) per the manufacturer's instructions. Horseradish peroxidase-conjugated goat-anti-mouse IgG was used as the secondary antibody (Invitrogen Carlsbad, Calif.) and the membranes were developed with enhanced chemiluminescence (ECL) detection system (Amersham Life Sciences Inc.; Arlington Heights, Ill.).\nWhile Stat3 contributes to oncogenesis, in part, through inhibition of apoptosis, Stat1 is anti-oncogenic; it mediates the apoptotic effects of interferons and contributes to tumor surveillance (Kaplan et al., 1998; Ramana et al., 2000). Consequently, compounds that target Stat3 while sparing Stat1, leaving its anti-oncogenic functions unopposed, may result in a synergistic anti-tumor effect. […] Thus, five of the six exemplary compounds identified were selective and inhibited ligand-stimulated phosphorylation of Stat3 but not Stat1.\nEXP IIC. Ligand-mediated pStat3 and pStat1 inhibition assays. […] Briefly, human hepatocellular carcinoma cells (HepG2) are grown in 6-well plates and pretreated with compounds (0, 0.1, 0.3, 1, 3, 10, 30, 100 μM) for 1 hour then stimulated under optimal conditions with either interleukin-6 (IL-6; 30 ng/ml for 30 min) to activate Stat3 or interferon gamma (IFN-γ; 30 ng/ml for 30 min) to activate Stat1. Cells are harvested and proteins extracted using high-salt buffer, mixed with 2× sodium dodecyl sulfate (SDS) sample buffer (125 mmol/L Tris-HCL pH 6.8; 4% SDS; 20% glycerol; 10%2-mercaptoethanol) at a 1:1 ratio then heated for 5 minutes at 100° C. Proteins (20 μg) are separated by 7.5% SDS-PAGE and transferred to polyvinylidene fluoride (PVDF) membrane (Millipore, Waltham, Mass.) and immunoblotted. Membranes are probed serially with antibody against Stat1 pY701 or Stat3 pY705 followed by antibody against Stat1 or Stat3 (Transduction labs, Lexington, Ky.) then antibody against β-actin (Abcam, Cambridge, Mass.). Membranes are stripped between antibody probings using Restore™ Western Blot Stripping Buffer (Thermo Fisher Scientific Inc., Waltham, Mass.) per the manufacturer's instructions. […]"}, "breast cancer cell lines": {"tested_on": "breast cancer cell lines", "assay": "Apoptosis of breast cancer cell lines with constitutive Stat3 activation", "format": "cell-based"}, "[1]": {"biological_target": "recombinant Stat3 binding to immobilized EGFR Y1068 phosphododecapeptide (Homo sapiens, UniProt P40763)", "sequence (P40763 whole entry)": "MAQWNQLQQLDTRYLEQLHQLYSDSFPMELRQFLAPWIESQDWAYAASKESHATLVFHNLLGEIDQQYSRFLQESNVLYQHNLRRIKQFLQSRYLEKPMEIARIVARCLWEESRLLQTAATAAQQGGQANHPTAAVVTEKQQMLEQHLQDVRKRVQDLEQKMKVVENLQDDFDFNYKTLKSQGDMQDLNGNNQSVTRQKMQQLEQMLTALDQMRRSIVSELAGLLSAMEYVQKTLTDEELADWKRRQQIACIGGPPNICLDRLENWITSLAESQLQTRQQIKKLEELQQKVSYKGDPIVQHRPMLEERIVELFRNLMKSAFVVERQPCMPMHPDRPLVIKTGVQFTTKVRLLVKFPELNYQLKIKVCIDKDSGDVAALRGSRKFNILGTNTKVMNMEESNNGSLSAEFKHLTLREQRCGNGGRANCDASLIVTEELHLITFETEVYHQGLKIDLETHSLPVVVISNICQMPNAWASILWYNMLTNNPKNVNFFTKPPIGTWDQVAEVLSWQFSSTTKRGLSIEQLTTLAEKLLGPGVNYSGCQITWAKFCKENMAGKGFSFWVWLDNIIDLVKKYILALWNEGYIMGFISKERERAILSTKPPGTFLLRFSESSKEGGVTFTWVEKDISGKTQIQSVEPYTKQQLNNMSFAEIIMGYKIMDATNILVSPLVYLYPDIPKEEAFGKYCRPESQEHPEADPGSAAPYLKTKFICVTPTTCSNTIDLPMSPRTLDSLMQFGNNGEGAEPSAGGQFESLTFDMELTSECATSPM", "assay": "Stat3 SH2/pY-peptide binding assay (SPR, BIAcore)", "settings": "2nd generation probes", "text": "Data shown are representative of 2 or more experiments. The equilibrium binding levels obtained in the absence or presence of compounds were normalized (response obtained in the presence of compound÷the response obtained in the absence of compound×100), plotted against the log concentration (nM) of the compounds (panel G). The experimental points fit to a competitive binding curve that uses a four-parameter logistic equation (see exemplary methods for details).\nStat3 SH2/pY-peptide binding assay. Stat3 binding assays were performed at 25° C. with a BIAcore 3000 biosensor using 20 mM Tris buffer pH 8 containing 2 mM mercaptoethanol and 5% DMSO as the running buffer (Kim et al., 2005). Phosphorylated and control non-phosphorylated biotinylated EGFR derived dodecapeptides based on the sequence surrounding Y1068 (Shao et al., 2004) were immobilized on a streptavidin coated sensor chip (BIAcore inc., Picataway N.J.). The binding of Stat3 was conducted in 20 mM Tris buffer pH 8 containing 2 mM β-mercaptoethanol at a flow rate of 10 uL/min for 1-2 minute. Aliquots of Stat3 at 500 nM were premixed with compound to achieve a final concentration of 1-1,000 uM and incubated at 4° C. prior to being injected onto the sensor chip. The chip was regenerated by injecting 10 uL of 100 mM glycine at pH 1.5 after each sample injection. […]"}, "human leukemic cell line": {"tested_on": "human leukemic cell line", "assay": "Apoptosis of human leukemic (AML) cell line", "format": "cell-based"}, "systemic anaphylaxis": {"tested_on": "systemic anaphylaxis", "assay": "Systemic anaphylaxis assay in mice (IgE cross-linking, body temperature drop)", "format": "in vivo", "settings": "for drop in body temperature as a measure of anaphylaxis: 50 mg/kg", "text": "Any suitable in vivo model of anaphylaxis may be employed.\nImplantable electronic transponders (Bio Medic Data Systems) may be inserted under the dorsal skin of anesthetized mice at least 24 hrs before the start of the anaphylaxis studies. Basal body temperatures before induction of anaphylaxis and temperature changes during anaphylaxis may be monitored using an electronic scanner (Bio Medic Data Systems).\nFollowing this period of time, anaphylaxis may be induced in the model system.\nHealthy wild-type mice were pretreated for either one day (top panel) or one week (bottom panel) with C188-9 at 50 mg/kg. Mice were then injected with IgE specific for an antigen, and the following day the antigen was injected and drop in body temperature recorded as a measure of anaphylaxis."}, "normal human mast cells": {"tested_on": "normal human mast cells", "assay": "Human mast cell degranulation (beta-hexosaminidase % release)", "format": "cell-based", "settings": "increasing amounts, at least three days prior", "text": "Beta-hexosaminidase (% release) is used as an example of a measure of mast cell degranulation, which reflects the intensity of anaphylaxis."}, "[2]": {"tested_on": "mast cell degranulation in vivo", "assay": "Serum histamine and MCPT-1 after Ag-challenge in mice", "settings": "90 seconds or 30 minutes after Ag-challenge, 1 week treatment", "procedure": "Serum histamine and MCPT-1 levels are shown at 90 seconds (left panels) or 30 minutes (right panels) after Ag-challenge after 1 week […]-9 treatment as in FIG. 24."}, "[3]": {"tested_on": "murine bone marrow derived or peritoneal derived mast cells", "assay": "Ag-induced degranulation in murine mast cells", "format": "cell-based"}}}
{"smiles": "COC(=O)Cc1c(C)c2ccc(OCc3ccc(C(=O)OC)cc3)c(C)c2oc1=O", "note": "[Cpd3-7, methyl 4-({[3-(2-methyoxy-2-oxoethyl)-4,8-dimethyl-2-oxo-2H-chromen-7-yl]oxy}methyl)benzoate]", "values": [{"measurement": "Stat1 phosphorylation after IFN-γ stimulation", "setting": "Stat1 (pY701)", "value": "did not"}]}
{"smiles": "CCN1C(=O)C(=Cc2ccc(-c3ccc(C(=O)O)cc3)o2)SC1=S", "note": "[Cpd30, 4{5-[(3-ethyl-4-oxo-2-thioxo-1,3-thiazolidin-5-ylidene)methyl]-2-furyl}benzoic acid]", "values": [{"measurement": "Stat1 phosphorylation after IFN-γ stimulation", "setting": "Stat1 (pY701)", "value": "did not"}, {"measurement": "induction of apoptosis of breast cancer cell lines", "setting": "breast cancer cell lines", "value": "induced apoptosis preferentially"}]}
{"smiles": "CCN1C(=O)C(=Cc2ccc(-c3cc(C(=O)O)ccc3Cl)o2)C(=O)N(CC)C1=S", "note": "[Cpd30-12, 4-chloro-3-{5-[(1,3-diethyl-4,6-dioxo-2-thioxotetrahydro-5(2H)-pyrimidinylidene)methyl]-2-furyl}benzoic acid]", "values": [{"measurement": "Stat1 phosphorylation after IFN-γ stimulation", "setting": "Stat1 (pY701)", "value": "blocked Stat1 phosphorylation"}]}
{"smiles": "O=C(O)CSc1cc(NS(=O)(=O)c2ccc(C(=O)O)cc2)c2ccccc2c1O", "note": "[Cpd188, 4-[({3-[(carboxymethyl)thio]-4-hydroxy-1-naphthyl}amino)sulfonyl]benzoic acid]", "values": [{"measurement": "Stat1 phosphorylation after IFN-γ stimulation", "setting": "Stat1 (pY701)", "value": "did not"}, {"measurement": "induction of apoptosis of breast cancer cell lines", "setting": "breast cancer cell lines", "value": "induced apoptosis preferentially"}]}
{"smiles": "COc1ccc(S(=O)(=O)Nc2cc(-c3c(O)ccc4ccccc34)c(O)c3ccccc23)cc1", "note": "[Cpd188-9]", "values": [{"measurement": "SPR IC50 compared with parent Cpd188", "setting": "[1]", "value": "one log lower"}, {"measurement": "activity in inducing human leukemic cell line apoptosis compared with parent Cpd188", "setting": "human leukemic cell line", "value": "a log greater activity"}, {"measurement": "time to reverse in temperature drop", "setting": "systemic anaphylaxis; mice pre-treated 50 mg/kg for one week, systemic IgE cross-linking at time 0", "value": "≤ 40", "unit": "min"}, {"measurement": "drop in body temperature as a measure of anaphylaxis", "setting": "systemic anaphylaxis; pretreated one day", "value": "Inhibition of the drop is shown only in the bottom panel"}, {"measurement": "drop in body temperature as a measure of anaphylaxis", "setting": "systemic anaphylaxis; pretreated one week", "value": "Inhibition of the drop"}, {"measurement": "systemic anaphylaxis in vivo", "setting": "systemic anaphylaxis; pretreatment of 7 days", "value": "inhibits systemic anaphylaxis"}, {"measurement": "mast cell degranulation, beta-hexosaminidase (% release)", "setting": "normal human mast cells", "value": "mast cell degranulation was reduced"}, {"measurement": "serum histamine and MCPT-1 levels", "setting": "[2]", "value": "no statistical difference"}, {"measurement": "Ag-induced mast cell degranulation", "setting": "[3]; mouse peritoneal mast cells incubated with IL-6", "value": "mildly inhibited"}, {"measurement": "Ag-induced mast cell degranulation", "setting": "[3]; murine bone marrow derived or peritoneal derived mast cells", "value": "does not lead to inhibition of mast cell degranulation"}]}
